Laboratory results reported in US7396837B2, “Antitumoral analogs of lamellarins” (Pharma Mar, S.A.U., priority 2002, dated 2008).
Where two headings read alike, the source gives them in different places.

What was measured:
Format in all cases: cell-based
[1] = test system: K-562; assay: SRB colorimetric cell growth inhibition assay, K-562; settings: Homo sapiens; for GI50: GI=growth inhibition, read-out: GI50 K-562; for CC50: cell killing (cytotoxic effect); for IC (TGI): total growth inhibition (cytostatic effect), read-out: TGI K-562
Summary of the method: (§1)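 Continuous drug exposure of human cancer cells; SRB protein stain read-out; triplicate wells, mean ± SD; GI, TGI, LC computed.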

[2] = test system: A-549; assay: SRB colorimetric cell growth inhibition assay, A-549; settings: Homo sapiens; for GI50: GI=growth inhibition, read-out: GI50 A-549; for CC50: cell killing (cytotoxic effect); for IC (TGI): total growth inhibition (cytostatic effect), read-out: TGI A-549
Summary of the method: as §1

[3] = test system: SK-MEL-28; assay: SRB colorimetric cell growth inhibition assay, SK-MEL-28; settings: Homo sapiens; for GI50: GI=growth inhibition, read-out: GI50 MEL-28; for CC50: LC=cell killing (cytotoxic effect); for IC (TGI): TGI=total growth inhibition (cytostatic effect), read-out: TGI MEL-28
Summary of the method: as §1

[4] = test system: HT-29; assay: SRB colorimetric cell growth inhibition assay, HT-29; settings: Homo sapiens; for GI50: GI=growth inhibition, read-out: GI50 HT-29; for CC50: cell killing (cytotoxic effect); for IC (TGI): total growth inhibition (cytostatic effect), read-out: TGI HT-29
Summary of the method: as §1

[5] = test system: LoVo; assay: SRB colorimetric cell growth inhibition assay, LoVo; settings: Homo sapiens, LoVo; for GI50: GI=growth inhibition, read-out: GI50 LOVO; for CC50: cell killing (cytotoxic effect); for IC (TGI): total growth inhibition (cytostatic effect), read-out: TGI LOVO
Summary of the method: as §1

[6] = test system: LoVo-Dox; assay: SRB colorimetric cell growth inhibition assay, LoVo-Dox (MDR); settings: Homo sapiens; for GI50: GI=growth inhibition, read-out: GI50 LOVO-DOX; for CC50: cell killing (cytotoxic effect); for IC (TGI): total growth inhibition (cytostatic effect), read-out: TGI LOVO-DOX
Summary of the method: as §1

[7] = test system: DU-145; assay: SRB colorimetric cell growth inhibition assay, DU-145; settings: Homo sapiens; for GI50: GI=growth inhibition, read-out: GI50 DU-145; for CC50: LC=cell killing (cytotoxic effect); for IC (TGI): TGI=total growth inhibition (cytostatic effect), read-out: TGI DU-145
Summary of the method: as §1

[8] = test system: LNCaP; assay: SRB colorimetric cell growth inhibition assay, LNCaP; settings: Homo sapiens, LNCaP; for GI50: GI=growth inhibition, read-out: GI50 LN-caP; for CC50: LC=cell killing (cytotoxic effect); for IC (TGI): TGI=total growth inhibition (cytostatic effect), read-out: TGI LN-caP
Summary of the method: as §1

[9] = test system: SK-BR-3; assay: SRB colorimetric cell growth inhibition assay, SK-BR-3; settings: Homo sapiens; for GI50: GI=growth inhibition, read-out: GI50 SK-BR-3; for CC50: LC=cell killing (cytotoxic effect); for IC (TGI): TGI=total growth inhibition (cytostatic effect), read-out: TGI SK-BR-3
Summary of the method: as §1

[10] = test system: IGROV; assay: SRB colorimetric cell growth inhibition assay, IGROV; settings: Homo sapiens, IGROV; for GI50: GI=growth inhibition, read-out: GI50 IGROV; for CC50: LC=cell killing (cytotoxic effect); for IC (TGI): TGI=total growth inhibition (cytostatic effect), read-out: TGI IGROV
Summary of the method: as §1

[11] = test system: IGROV-ET; assay: SRB colorimetric cell growth inhibition assay, IGROV-ET (ET-743 resistant); settings: Homo sapiens; for GI50: GI=growth inhibition, read-out: GI50 IGROV-ET; for CC50: LC=cell killing (cytotoxic effect); for IC (TGI): TGI=total growth inhibition (cytostatic effect), read-out: TGI IGROV-ET
Summary of the method: as §1

[12] = test system: PANC-1; assay: SRB colorimetric cell growth inhibition assay, PANC-1; settings: Homo sapiens; for GI50: GI=growth inhibition, read-out: GI50 PANC-1; for CC50: cell killing (cytotoxic effect); for IC (TGI): total growth inhibition (cytostatic effect), read-out: TGI PANC-1
Summary of the method: as §1

[13] = test system: SKOV-3; assay: SRB colorimetric cell growth inhibition assay, SKOV-3; settings: Homo sapiens; for GI50: SK-OV-3, SKOV-3, GI=growth inhibition, read-out: GI50 SKOV-3; for IC (TGI): TGI=total growth inhibition (cytostatic effect), read-out: TGI SKOV-3
Summary of the method: (§2)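 Growth and viability quantified by sulforhodamine B staining in 96-well microplates. Triplicate wells give mean ± SD; derived endpoints are GI, TGI (cytostatic) and LC (cytotoxic).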

[14] = SRB colorimetric cell growth inhibition assay, H-MEC-1; settings: human
Summary of the method: as §2

[15] = test system: H-MEC-1; assay: as above; settings: Homo sapiens, HMEC-1, H-MEC-1; for GI50: GI=growth inhibition; for IC (TGI): TGI=total growth inhibition (cytostatic effect), read-out: TGI H-MEC-1
Summary of the method: as §2

For `COc1cc2c(cc1OC)-c1c(-c3ccc(OC(=O)CCc4ccccc4)c(OC)c3)c3c4cc(OC)c(OC(=O)CCc5ccccc5)cc4oc(=O)c3n1CC2` [Compound 93], which GI50 ([1]; K562, K-562) is on record?
Its GI50 is 1.62 µM.

What about the CC50 ([1]; K562, K-562, read-out: LC50 K-562) of the same molecule?
The CC50 was 4.36 µM.

What about the IC (TGI) ([1]; K562, K-562) of the same molecule?
The IC (TGI) was 2.65 µM.

And the GI50 ([2]; A549, A-549)?
The GI50 was 8.64 µM.

And the CC50 ([2]; A549, A-549, read-out: LC50 A-549)?
Its CC50 is 12.8 µM.

And the IC (TGI) ([2]; A549, A-549)?
Its IC (TGI) is 12.8 µM.

What about the GI50 ([3]; SK-MEL-28, MEL-28) of the same molecule?
Its GI50 is 4.57 µM.

And the CC50 ([3]; SK-MEL-28, MEL-28, read-out: LC50 MEL-28)?
Its CC50 is 12.8 µM.

And the IC (TGI) ([3]; SK-MEL-28, MEL-28)?
The IC (TGI) was 12.8 µM.

And the GI50 ([4]; HT-29, HT-29)?
The GI50 was 12.8 µM.

And the CC50 ([4]; HT-29, HT-29, read-out: LC50 HT-29)?
Its CC50 is 12.8 µM.

What about the IC (TGI) ([4]; HT-29, HT-29) of the same molecule?
The IC (TGI) was 12.8 µM.

And the GI50 [5]?
The GI50 was 12.8 µM.

What about the CC50 ([5]; read-out: LC50 LOVO) of the same molecule?
The CC50 was 12.8 µM.

And the IC (TGI) [5]?
The IC (TGI) was 12.8 µM.

And the GI50 ([6]; LOVO-DOX)?
Its GI50 is 3.39 µM.

What about the CC50 ([6]; LOVO-DOX, read-out: LC50 LOVO-DOX) of the same molecule?
Its CC50 is 12.8 µM.

What about the IC (TGI) ([6]; LOVO-DOX) of the same molecule?
The IC (TGI) was 11.7 µM.

What about the GI50 ([7]; DU-145, DU-145) of the same molecule?
Its GI50 is 12.8 µM.

What about the CC50 ([7]; DU-145, DU-145, read-out: LC50 DU-145) of the same molecule?
Its CC50 is 12.8 µM.

What about the IC (TGI) ([7]; DU-145, DU-145) of the same molecule?
Its IC (TGI) is 12.8 µM.

What about the GI50 ([8]; LN-caP) of the same molecule?
Its GI50 is 0.408 µM.

And the CC50 ([8]; LN-caP, read-out: LC50 LN-caP)?
The CC50 was 7.08 µM.

What about the IC (TGI) ([8]; LN-caP) of the same molecule?
The IC (TGI) was 1.27 µM.

What about the GI50 ([9]; SK-BR-3, SK-BR-3) of the same molecule?
Its GI50 is 4.95 µM.

What about the CC50 ([9]; SK-BR-3, SK-BR-3, read-out: LC50 SK-BR-3) of the same molecule?
Its CC50 is 12.8 µM.

What about the IC (TGI) ([9]; SK-BR-3, SK-BR-3) of the same molecule?
The IC (TGI) was 12.8 µM.

And the GI50 [10]?
Its GI50 is 3.37 µM.

What about the CC50 ([10]; read-out: LC50 IGROV) of the same molecule?
Its CC50 is 12.8 µM.

And the IC (TGI) [10]?
The IC (TGI) was 7.08 µM.

And the GI50 ([11]; IGROV-ET)?
The GI50 was 11.7 µM.

And the CC50 ([11]; IGROV-ET, read-out: LC50 IGROV-ET)?
The CC50 was 12.8 µM.

And the IC (TGI) ([11]; IGROV-ET)?
The IC (TGI) was 12.8 µM.

What about the GI50 ([12]; PANC-1, PANC-1) of the same molecule?
The GI50 was 12.8 µM.

What about the CC50 ([12]; PANC-1, PANC-1, read-out: LC50 PANC-1) of the same molecule?
Its CC50 is 12.8 µM.

What about the IC (TGI) ([12]; PANC-1, PANC-1) of the same molecule?
Its IC (TGI) is 12.8 µM.

What about the GI50 [13] of the same molecule?
The GI50 was 6.26 µM.

And the CC50 ([13]; SK-OV-3, SKOV-3, LC=cell killing (cytotoxic effect), read-out: LC50 SKOV-3)?
Its CC50 is 12.8 µM.

What about the IC (TGI) ([13]; SK-OV-3, SKOV-3) of the same molecule?
Its IC (TGI) is 12.8 µM.

What about the CC50 ([14]; H-MEC-1 cells, H-MEC-1, LC=cell killing (cytotoxic effect), read-out: LC50 H-MEC-1) of the same molecule?
Its CC50 is 12.8 µM.

What about the GI50 [15] of the same molecule?
The GI50 was 12.8 µM.

What about the IC (TGI) [15] of the same molecule?
Its IC (TGI) is 12.8 µM.

Which results are given for `COc1cc(-c2c3n(c4c(=O)oc5cc(OC(=O)[C@@H]6CCCN6)c(OC)cc5c24)CCc2cc(OC(=O)[C@@H]4CCCN4)c(OC)cc2-3)ccc1OC(=O)[C@@H]1CCCN1` [Compound 134]?
GI50 ([1]; K562, K-562): 0.571 µM; IC (TGI) ([1]; K562, K-562): 4.93 µM; CC50 ([1]; K562, read-out: LC50 K-562, K-562): 8.81 µM; GI50 ([2]; A549, A-549): 2.55 µM; IC (TGI) ([2]; A549, A-549): 4.93 µM; CC50 ([2]; A549, read-out: LC50 A-549, A-549): 8.81 µM; GI50 ([3]; SK-MEL-28, MEL-28): 1.73 µM; IC (TGI) ([3]; SK-MEL-28, MEL-28): 3.23 µM; CC50 ([3]; SK-MEL-28, read-out: LC50 MEL-28, MEL-28): 6.04 µM; GI50 ([4]; HT-29, HT-29): 2.85 µM; CC50 ([4]; HT-29, read-out: LC50 HT-29, HT-29): 8.81 µM; IC (TGI) ([4]; HT-29): 8.81 µM; CC50 ([5]; read-out: LC50 LOVO, LOVO): 8.67 µM; GI50 [5]: 2.05 µM; IC (TGI) [5]: 4.21 µM; GI50 ([6]; LOVO-DOX): 0.519 µM; IC (TGI) ([6]; LOVO-DOX): 1.99 µM; CC50 ([6]; read-out: LC50 LOVO-DOX, LOVO-DOX): 7.79 µM; GI50 ([7]; DU-145, DU-145): 2.12 µM; IC (TGI) ([7]; DU-145, DU-145): 4.47 µM; CC50 ([7]; DU-145, read-out: LC50 DU-145, DU-145): 8.81 µM; GI50 ([8]; LN-caP): 0.458 µM; IC (TGI) ([8]; LN-caP): 1.34 µM; CC50 ([8]; read-out: LC50 LN-caP, LN-caP): 4.16 µM; GI50 ([9]; SK-BR-3, SK-BR-3): 2.1 µM; IC (TGI) ([9]; SK-BR-3, SK-BR-3): 4.34 µM; CC50 ([9]; SK-BR-3, read-out: LC50 SK-BR-3, SK-BR-3): 8.81 µM; CC50 ([10]; read-out: LC50 IGROV, IGROV): 6.5 µM; GI50 [10]: 0.943 µM; IC (TGI) [10]: 2.48 µM; GI50 ([11]; IGROV-ET): 0.482 µM; IC (TGI) ([11]; IGROV-ET): 2.14 µM; CC50 ([11]; read-out: LC50 IGROV-ET, IGROV-ET): 7.58 µM; GI50 ([12]; PANC-1, PANC-1): 2.17 µM; IC (TGI) ([12]; PANC-1, PANC-1): 4.53 µM; CC50 ([12]; PANC-1, read-out: LC50 PANC-1, PANC-1): 8.81 µM; GI50 [13]: 0.739 µM; CC50 ([13]; SK-OV-3, read-out: LC50 SKOV-3): 4.26 µM; IC (TGI) ([13]; SK-OV-3, SKOV-3): 1.85 µM; CC50 ([14]; LC50 H-MEC-1): 8.81 µM; GI50 [15]: 2.13 µM; IC (TGI) [15]: 6.51 µM
